Laboratory results taken from patent US20210171948A1, “COMPOSITIONS AND METHODS FOR TARGETING GLYPICAN-2 IN THE TREATMENT OF CANCER” (Shepherd Therapeutics, Inc., priority 2019, published 2021).
d = 2'-deoxy (DNA); r = 2'-OH (RNA)

How the values were obtained:
[1] = tested on: GPC2 mRNA; assay: GPC2 mRNA knockdown by qPCR in TC-32 Ewing's sarcoma cells transfected with siRNA (Example 2); format: cell-based, human; conditions: TC-32 cells; 72 hours post transfection
Procedure: siRNAs 1-5 from Table 7 were diluted to 40 nM in OptiMEM media and mixed in a 1:3 ratio (weight by volume) with RNAiMAX. This was incubated for 15 minutes at room temperature and dispensed onto cells plated in a 6 well tissue culture plate. Total RNA samples were collected at either 72 hours post transfection to compare knockdown efficiency (FIG. 2A), or at 24, 48, 72 or 96 hours post transfection to determine the extent of GPC2 mRNA knockdown over time (FIG. 2B). Expression levels of mRNA of GPC2 were measured in these samples using primers specific for GPC2 obtained commercially from Thermofisher (Carlsbad, Calif.) and standard qPCR technique.

[2] = tested on: CHP212 cells; assay: Cell viability after siRNA transfection, Cell Titer Glo 2.0 (Example 3); format: cell-based; conditions: CHP212 (Neuroblastoma); 96 hour incubation
Procedure: (§1) GPC2 mRNA knockdown and changes in cell viability were assessed in multiple cancer cell lines. Cells were transfected with either a scrambled control siRNA or with GPC2 siRNA sequence 3 or sequence 5 from Table 7 using the RNAiMAX Lipofectamine kit (Invitrogen, Carlsbad, Calif.) as previously described in Example 2, either in 96 well format (for viability assays) or 6 well format (for knockdown assessment). Following a 96 hour incubation period, cells were washed and the viability measurement was assessed using Cell Titer Glo 2.0. Total RNA was isolated from the 6 well plate samples to determine knockdown efficiency.

[3] = tested on: SKNAS cells; assay: as above; format: cell-based; conditions: SKNAS (Neuroblastoma); 96 hour incubation
Procedure: as §1

[4] = tested on: SNU16 cells; assay: as above; format: cell-based; conditions: SNU16 (Gastric); 96 hour incubation
Procedure: as §1

[5] = tested on: TC32 cells; assay: as above; format: cell-based; conditions: TC32 (Ewing's Sarcoma); 96 hour incubation
Procedure: as §1

[6] = tested on: TC71 cells; assay: as above; format: cell-based; conditions: TC71 (Ewing's Sarcoma); 96 hour incubation
Procedure: as §1

[7] = tested on: TOV112D cells; assay: as above; format: cell-based; conditions: TOV112D (Ovarian Carcinoma); 96 hour incubation
Procedure: as §1

[8] = tested on: GPC2 mRNA; assay: GPC2 mRNA knockdown in cell lines of the cisplatin experiment (Example 5); format: cell-based, human
Procedure: GPC2 mRNA was reduced using the indicated siRNAs and changes in cell viability were assessed in multiple cancer cell lines, in combination with Cisplatin treatment. Cells were transfected with either a scrambled control siRNA or with GPC2 siRNA sequences 3 or 5 from Table 7 using the RNAiMAX Lipofectamine kit (Invitrogen, Carlsbad, Calif.), as previously described, in either in 96 well (for viability assays) or 6 well format (for total RNA). Cisplatin was added at increasing concentrations (0 to 30 uM) to transfected cells at 24 hours post transfection. Following a 72 hour incubation period, cell viability was measured using Cell Titer Glo 2.0. Total RNA samples were also isolated to measure knockdown efficiency.

[9] = tested on: CHLA-136 cells; assay: Cyclophosphamide IC50 in siRNA-transfected cells, Cell Titer Glo 2.0 viability (Example 7); format: cell-based
[10] = tested on: CHLA-172 cells; assay: as above; format: cell-based
[11] = tested on: KELLY cells; assay: as above; format: cell-based
[12] = tested on: SKNAS cells; assay: as above; format: cell-based
[13] = tested on: CHLA-90 cells; assay: Topotecan IC50 in siRNA-transfected cells, Cell Titer Glo 2.0 viability (Example 10); format: cell-based
Procedure: (§2) GPC2 mRNA expression was reduced and changes in cell viability were assessed in multiple neuroblastoma cell lines. Cells were transfected with either a control siRNA or with GPC2 siRNA sequences 5 or 7 from Table 7 using the RNAiMAX Lipofectamine kit (Invitrogen, Carlsbad, Calif.) as previously described in 96 wells for viability assays. Topotecan was added at increasing concentrations (0-5 uM) to transfected cells at 24 hours post transfection. Following a 72 hour incubation period, viability measurements were made using Cell Titer Glo 2.0.

[14] = tested on: CHP212 cells; assay: as above; format: cell-based
Procedure: as §2

[15] = tested on: KELLY cells; assay: as above; format: cell-based
Procedure: as §2

[16] = tested on: SH-SY5Y cells; assay: as above; format: cell-based
Procedure: as §2

[17] = tested on: SK-N-BE2 cells; assay: as above; format: cell-based
Procedure: as §2

[18] = tested on: SKNAS cells; assay: as above; format: cell-based
Procedure: as §2

[19] = tested on: spheroids from CHP212, SKNAS, SK-N-BE2 and CHLA90 neuroblastoma cells; assay: Viability of established spheroid cultures after siRNA transfection (Example 11); format: cell-based; conditions: 96 hour following transfection; where GPC2 knockdown was observed (FIG. 7B)
Procedure: The effect of siRNA mediated GPC2 mRNA knockdown was also assessed on established spheroid cultures. Spheroids were established by seeding cells in low attachment plates and culturing for 96 hours. Spheroids were transfected with either a scrambled control siRNA or with GPC2 siRNA of sequence 5 or 7 from Table 7, using the RNAiMAX Lipofectamine kit (Invitrogen, Carlsbad, Calif.) as previously described. At the 96 hour time point following transfection, the degree of GPC2 mRNA knockdown (FIG. 7A) as well as spheroid viability (FIG. 7B) was measured.

GPC2 siRNA 5: siRNA duplex: sense CUCAGUAGCCCAGCACUCU[dT][dT] (SEQ ID NO: 211), anti-sense AGAGUGCUGGGCUACUGAG[dT][dT] (SEQ ID NO: 212) (sense CUCAGUAGCCCAGCACUCUTT; antisense AGAGUGCUGGGCUACUGAGTT; sugars from the 5' end r19 d2, backbone not given here; listed as Homo sapiens)
Degree of GPC2 knockdown among siRNA sequences 1-5 [1]: greatest degree of GPC2 knockdown
% Viability [2]: 64.46%
% Viability [3]: 56.14%
% Viability [4]: 89.01%
% Viability [5]: 77.18%
% Viability [6]: 100.92%
% Viability [7]: 81.15%
% GPC2 knockdown ([8]; CHLA-90 (Neuroblastoma)): 55%
% GPC2 knockdown ([8]; CHLA-136 (Neuroblastoma)): 35%
% GPC2 knockdown ([8]; CHLA-172 (Neuroblastoma)): 8%
% GPC2 knockdown ([8]; CHP212 (Neuroblastoma)): 70%
% GPC2 knockdown ([8]; COV362 (Ovarian cancer)): 89%
% GPC2 knockdown ([8]; GIST-T1 (Gastrointestinal Stromal)): 75%
% GPC2 knockdown ([8]; KELLY (Neuroblastoma)): 75%
% GPC2 knockdown ([8]; RH30 (Rhabdomyosarcoma)): 86%
% GPC2 knockdown ([8]; RH41 (Rhabdomyosarcoma)): 70%
% GPC2 knockdown ([8]; SH-SY5Y (Neuroblastoma)): 75%
% GPC2 knockdown ([8]; SK-N-BE2 (Neuroblastoma)): 68%
% GPC2 knockdown ([8]; SKNAS (Neuroblastoma)): 70%
% GPC2 knockdown ([8]; SNU16 (Gastric carcinoma)): 52%
% GPC2 knockdown ([8]; TC32 (Ewing's sarcoma)): 75%
% GPC2 knockdown ([8]; TC71 (Ewing's sarcoma)): 60%
% GPC2 knockdown ([8]; TOV112D (Ovarian cancer)): 86%
Data Summary: effect of knockdown on sensitivity to cyclophosphamide ([9]; CHLA-136): not increase sensitivity
IC50 ([9]; CHLA-136 cells transfected with the labelled siRNA, cyclophosphamide added 24 hr post transfection, 72 hour incubation): 5000 nM
Data Summary: effect of knockdown on sensitivity to cyclophosphamide ([10]; CHLA-172): increases sensitivity to
IC50 ([10]; CHLA-172 cells transfected with the labelled siRNA, cyclophosphamide added 24 hr post transfection, 72 hour incubation): 10000 nM
Data Summary: effect of knockdown on sensitivity to cyclophosphamide ([11]; KELLY): increases sensitivity to
IC50 ([11]; KELLY cells transfected with the labelled siRNA, cyclophosphamide added 24 hr post transfection, 72 hour incubation): 1000 nM
Data Summary: effect of knockdown on sensitivity to cyclophosphamide ([12]; SKNAS): increases sensitivity to
IC50 ([12]; SKNAS cells transfected with the labelled siRNA, cyclophosphamide added 24 hr post transfection, 72 hour incubation): 480 nM
Data Summary: effect of knockdown on sensitivity to topotecan ([13]; CHLA-90): not increase sensitivity to topotecan
IC50 ([13]; CHLA-90 cells transfected with the labelled siRNA, topotecan added 24 hours post transfection, 72 hour incubation): 110 nM
Data Summary: effect of knockdown on sensitivity to topotecan ([14]; CHP212): not increase sensitivity to topotecan
IC50 ([14]; CHP212 cells transfected with the labelled siRNA, topotecan added 24 hours post transfection, 72 hour incubation): 10 nM
Data Summary: effect of knockdown on sensitivity to topotecan ([15]; KELLY): not increase sensitivity to topotecan
IC50 ([15]; KELLY cells transfected with the labelled siRNA, topotecan added 24 hours post transfection, 72 hour incubation): 60 nM
Data Summary: effect of knockdown on sensitivity to topotecan ([16]; SH-SY5Y): not increase sensitivity to topotecan
IC50 ([16]; SH-SY5Y cells transfected with the labelled siRNA, topotecan added 24 hours post transfection, 72 hour incubation): 40 nM
Data Summary: effect of knockdown on sensitivity to topotecan ([17]; SK-N-BE2): not increase sensitivity to topotecan
IC50 ([17]; SK-N-BE2 cells transfected with the labelled siRNA, topotecan added 24 hours post transfection, 72 hour incubation): 10 nM
Data Summary: effect of knockdown on sensitivity to topotecan ([18]; SKNAS): increases sensitivity to topotecan
IC50 ([18]; SKNAS cells transfected with the labelled siRNA, topotecan added 24 hours post transfection, 72 hour incubation): 20 nM
Viability of established spheroids [19]: a decrease in spheroid viability was also seen
